From patent US20250019387A1 (Frontier Medicines Corporation, priority 0001, published 2025)

What follows are compounds tested against KRAS G12C and cRAF (Ras-binding domain) interaction (Homo sapiens (Human), UniProt P01116, C118S/C51S/C80L/G12C) (assay: Inhibition of KRAS G12C and cRAF binding (AlphaScreen)). Settings: additional exemplary compounds; KRAS G12C and cRAF binding; read-out: RAF1 RBD IC50.
Description: Compounds were diluted in 100% DMSO and each compound concentration was spotted at 200 nl/well onto low volume, white 384 well plates. […] Plates were incubated for 19-20 hours. A mixture of RBD and the AlphaScreen streptavidin donor and glutathione acceptor beads diluted in 25 mM Hepes, pH 7.4, 150 mM NaCl, 5 mM MgCl2, 0.01% TritonX-100 and 2% DMSO was then added at 10 ul/well and incubated for 60-90 minutes before the samples were read for emission at 570 nm after excitation of the donor beads at 680 nm. All incubations were performed at room temperature. […] IC50s were determined using nonlinear regression fit of [inhibitor]vs. response (4 parameters). […]

KRAS G12C and cRAF (Ras-binding domain) interaction, sequence (P01116 other isoform, or with tags, fused parts or gaps G12C/C51S/C80L/C118S): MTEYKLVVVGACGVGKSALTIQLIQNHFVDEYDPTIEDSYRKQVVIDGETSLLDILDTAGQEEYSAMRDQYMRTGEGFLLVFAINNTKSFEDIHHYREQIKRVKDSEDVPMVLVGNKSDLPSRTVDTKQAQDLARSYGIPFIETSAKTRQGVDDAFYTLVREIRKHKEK

IC50 [µM]	Compound
0.01 to 0.1	CN(C)C/C=C/S(=O)(=O)CCN(C)c1nc(OC[C@@H]2CCCN2C)nc2c(F)c(-c3cccc4cccc(Cl)c34)ncc12
> 0.5	CN(CCS(=O)(=O)/C=C/CN1CCC(F)(F)C1)c1nc(OC[C@@H]2CCCN2C)nc2c(F)c(-c3cccc4cccc(Cl)c34)ncc12
> 0.5	CN1CCC[C@H]1COc1nc(N(C)[C@@H]2CCN(C(=O)/C=C/CN3CC(F)C3)C2)c2cnc(-c3cccc4cccc(Cl)c34)c(F)c2n1
> 0.5	CCOC/C=C/S(=O)(=O)CCN(C)c1nc(OCC23CCCN2CCC3)nc2c1CCN(c1cccc3cccc(Cl)c13)C2
0.1 to 0.5	C=CC(=O)CN(C)c1nc(OC[C@@H]2CCCN2C)nc2c1CCN(c1cccc3ccccc13)C2
0.1 to 0.5	COC/C=C/C(=O)N1CC[C@@H](N(C)c2nc(OCC34CCCN3CCC4)nc3c2CCN(c2cccc4cccc(Cl)c24)C3)C1
> 0.5	C=CC(=O)N1C[C@@H](N(C)c2nc(OC[C@@]34CCCN3C[C@H](F)C4)nc3c2CCN(c2cccc4cccc(Cl)c24)C3)C[C@@H]1CC#N
> 0.5	C=CC(=O)N1CCC(N(c2nc(OC[C@@]34CCCN3C[C@H](F)C4)nc3c(F)c(-c4cccc5cccc(Cl)c45)ncc23)C2CC2)C1 (stereo partly shown)
> 0.5	C=CC(=O)N1CCC1CN(C)c1nc(OC[C@@]23CCCN2C[C@H](F)C3)nc2c1CCN(c1cccc3cccc(Cl)c13)C2 (stereo partly shown)
> 0.5	C=CC(=O)N1CC[C@@H]1CN(C)c1nc(OC[C@@]23CCCN2C[C@H](F)C3)nc2c(F)c(-c3cccc4cccc(Cl)c34)ncc12
> 0.5	C=CC(=O)N1CC[C@H]1CN(C)c1nc(OC[C@@]23CCCN2C[C@H](F)C3)nc2c(F)c(-c3cccc4cccc(Cl)c34)ncc12
> 0.5	C=CC(=O)N(C)C[C@H]1CCN1c1nc(OC[C@@]23CCCN2C[C@H](F)C3)nc2c(F)c(-c3cccc4cccc(Cl)c34)ncc12
> 0.5	C=CC(=O)N(C)C[C@@H]1CCN1c1nc(OC[C@@]23CCCN2C[C@H](F)C3)nc2c(F)c(-c3cccc4cccc(Cl)c34)ncc12
0.1 to 0.5	C=CC(=O)N1CC(CN(C)c2nc(OC[C@]34CCCN3C[C@H](F)C4)nc3c2CCN(c2cccc4cccc(Cl)c24)C3)C1
0.01 to 0.1	CN(C)C/C=C/S(=O)(=O)CCN(C)c1nc(OC[C@@H]2CCCN2C)nc2c(F)c(-c3cccc4ccc(F)c(Cl)c34)ncc12
0.01 to 0.1	C=CC(=O)N1C[C@H](N(C)c2nc(OC[C@@]34CCCN3C[C@H](F)C4)nc3c(F)c(-c4cccc5cccc(Cl)c45)ncc23)C[C@H]1CC#N
> 0.5	Cc1cc(/C=C/C(=O)N2CC[C@@H](N(C)c3nc(OCC45CCCN4CCC5)nc4c(F)c(-c5cccc6cccc(Cl)c56)ncc34)C2)on1
> 0.5	CN(c1nc(OCC23CCCN2CCC3)nc2c(F)c(-c3cccc4cccc(Cl)c34)ncc12)[C@@H]1CCN(C(=O)/C=C/c2ncn(C)n2)C1
> 0.5	CN(c1nc(OCC23CCCN2CCC3)nc2c(F)c(-c3cccc4cccc(Cl)c34)ncc12)[C@@H]1CCN(C(=O)/C=C/c2cn(C)nn2)C1
> 0.5	C=CC(=O)N1CC(CN(C)c2nc(OC[C@@]34CCCN3C[C@@H](F)C4)nc3c(F)c(-c4cccc5cccc(Cl)c45)ncc23)C1

IC50 [µM]	Compound
> 0.5	C=CC(=O)N1CC[C@@H](N(C)c2nc(OC[C@@]34CCCN3C[C@@H](F)C4)nc3c(F)c(-c4cccc5cccc(Cl)c45)ncc23)C1
> 0.5	C=CC(=O)N1CC[C@@H](N(C)c2nc(OC[C@@]34CCCN3C[C@@H](F)C4)nc3c2CCN(c2cccc4cccc(Cl)c24)C3)C1
> 0.5	C=CC(=O)N(C)CC1CCN1c1nc(OC[C@@]23CCCN2C[C@H](F)C3)nc2c(F)c(-c3cccc4cccc(Cl)c34)ncc12 (stereo partly shown)
0.01 to 0.1	N#CN1CCC(N(c2nc(OC[C@@]34CCCN3C[C@H](F)C4)nc3c(F)c(-c4cccc5cccc(Cl)c45)ncc23)C2CC2)C1 (stereo partly shown)
> 0.5	C=CC(=O)N1CC[C@@H](N(C)c2nc(OC[C@]34CCCN3C[C@H](F)C4)nc3c2CCN(c2cccc4cccc(Cl)c24)C3)C1
0.01 to 0.1	C=CC(=O)N1C[C@H](N(C)c2nc(OC[C@@]34CCCN3C[C@H](F)C4)nc3c(F)c(-c4cccc5cccc(Cl)c45)ncc23)CC1C#N (stereo partly shown)
> 0.5	C=CC(=O)N1CC(CN(C)c2nc(OC[C@@]34CCCN3C[C@@H](F)C4)nc3c2CCN(c2cccc4cccc(Cl)c24)C3)C1
> 0.5	C=CC(=O)N1C[C@H]2C[C@@H]1CN2c1nc(OCC23CCCN2CCC3)nc2c1CCN(c1cccc3cccc(Cl)c13)C2
> 0.5	C=CC(=O)N1C[C@@H]2C[C@H]1CN2c1nc(OCC23CCCN2CCC3)nc2c1CCN(c1cccc3cccc(Cl)c13)C2
> 0.5	C=CC(=O)N1C[C@H](N(C)c2nc(OCC34CCCN3CCC4)nc3c2CCN(c2cccc4cccc(Cl)c24)C3)C[C@H]1CC#N
> 0.5	C=CC(=O)N1CC[C@@H]1CN(C)c1nc(OC[C@@]23CCCN2C[C@H](F)C3)nc2c1CCN(c1cccc3cccc(Cl)c13)C2
> 0.5	CN(c1nc(OCC23CCCN2CCC3)nc2c(F)c(-c3cccc4cccc(Cl)c34)ncc12)[C@@H]1CCN(C(=O)/C=C/c2ncccn2)C1
> 0.5	C=CC(=O)N1CC[C@@H](Nc2nc(OC[C@@]34CCCN3C[C@H](F)C4)nc3c(F)c(-c4cccc5cccc(Cl)c45)ncc23)C1
> 0.5	C=CC(=O)N1CC[C@H](Nc2nc(OC[C@@]34CCCN3C[C@H](F)C4)nc3c(F)c(-c4cccc5cccc(Cl)c45)ncc23)C1
0.1 to 0.5	C=CC(=O)N1CC(CNc2nc(OC[C@@]34CCCN3C[C@H](F)C4)nc3c(F)c(-c4cccc5cccc(Cl)c45)ncc23)C1
> 0.5	C=CC(=O)N1CC[C@H](Nc2nc(OC[C@@]34CCCN3C[C@H](F)C4)nc3c2CCN(c2cccc4cccc(Cl)c24)C3)C1
> 0.5	CN(c1nc(OC[C@@]23CCCN2C[C@H](F)C3)nc2c(F)c(-c3cccc4cccc(Cl)c34)ncc12)[C@@H]1CCN(C(=O)/C=C/c2ncn(C)n2)C1
> 0.5	CN(c1nc(OCC23CCCN2CCC3)nc2c(F)c(-c3cccc4cccc(Cl)c34)ncc12)[C@@H]1CCN(C(=O)/C=C/c2ccncn2)C1
> 0.5	CN(c1nc(OCC23CCCN2CCC3)nc2c(F)c(-c3cccc4cccc(Cl)c34)ncc12)[C@@H]1CCN(C(=O)/C=C/c2cnccn2)C1
> 0.5	C=CC(=O)N1CC[C@@H](Nc2nc(OC[C@@]34CCCN3C[C@H](F)C4)nc3c2CCN(c2cccc4cccc(Cl)c24)C3)C1

IC50 [µM]	Compound
> 0.5	C=CC(=O)N1CC(CNc2nc(OC[C@@]34CCCN3C[C@H](F)C4)nc3c2CCN(c2cccc4cccc(Cl)c24)C3)C1
0.1 to 0.5	C=CS(=O)(=O)CCN(C)c1nc(OC[C@@H]2CCCN2C)nc2c1CCN(c1cccc3ccc(F)c(Cl)c13)C2
> 0.5	CN(c1nc(OC[C@@]23CCCN2C[C@H](F)C3)nc2c1CCN(c1cccc3cccc(Cl)c13)C2)[C@@H]1CCN(C(=O)/C=C/c2ncn(C)n2)C1
> 0.5	C=CC(=O)N1CC(CN(C)c2nc(OC[C@@]34CCCN3C[C@H](O)C4)nc3c(F)c(-c4cccc5cccc(Cl)c45)ncc23)C1
0.1 to 0.5	CN(c1nc(OC[C@@]23CCCN2C[C@H](F)C3)nc2c(F)c(-c3cccc4ccc(F)c(Cl)c34)ncc12)[C@@H]1CCN(C(=O)/C=C/C2CNC2)C1
0.1 to 0.5	C=CC(=O)N1C[C@H](N(C)c2nc(OC[C@@]34CCCN3C[C@H](F)C4)nc3c2CCN(c2cccc4cccc(Cl)c24)C3)C[C@H]1CC#N
> 0.5	C=CC(=O)N1C[C@@H](F)[C@@H](N(C)c2nc(OC[C@@]34CCCN3C[C@H](F)C4)nc3c(F)c(-c4cccc5cccc(Cl)c45)ncc23)C1
> 0.5	C=CC(=O)N1CC[C@@H](N(C)c2nc(OC[C@@]34CCCN3C[C@H](F)C4)nc3c(F)c(-c4cc(OC(F)F)cc5ccccc45)ncc23)C1
> 0.5	CN(c1nc(OCC23CCCN2CCC3)nc2c(F)c(-c3cccc4cccc(Cl)c34)ncc12)[C@@H]1CCN(C(=O)/C=C/c2nnn(C)n2)C1
> 0.5	C=CC(=O)N1CC[C@@H](N(C)c2nc(OC[C@@]34CCCN3C[C@H](F)C4)nc3c(F)c(-c4cc(C(F)F)cc5ccccc45)ncc23)C1
> 0.5	C=CC(=O)N1C[C@@H](F)[C@H](N(C)c2nc(OC[C@@]34CCCN3C[C@H](F)C4)nc3c(F)c(-c4cccc5cccc(Cl)c45)ncc23)C1
> 0.5	CN(c1nc(OC[C@@]23CCCN2C[C@H](F)C3)nc2c(F)c(-c3cccc4cccc(Cl)c34)ncc12)[C@@H]1CCN(C(=O)/C=C/c2ccncn2)C1
> 0.5	CN(c1nc(OC[C@@]23CCCN2C[C@H](F)C3)nc2c1CCN(c1cccc3cccc(Cl)c13)C2)[C@@H]1CCN(C(=O)/C=C/c2ccncn2)C1
> 0.5	Cc1nsc(/C=C/C(=O)N2C[C@@H](F)[C@H](N(C)c3nc(OC[C@@]45CCCN4C[C@H](F)C5)nc4c(F)c(-c5cccc6cccc(Cl)c56)ncc34)C2)n1
> 0.5	Cc1nccc(/C=C/C(=O)N2C[C@@H](F)[C@H](N(C)c3nc(OC[C@@]45CCCN4C[C@H](F)C5)nc4c(F)c(-c5cccc6cccc(Cl)c56)ncc34)C2)n1
> 0.5	CN(c1nc(OC[C@@]23CCCN2C[C@H](F)C3)nc2c(F)c(-c3cccc4cccc(Cl)c34)ncc12)[C@@H]1CCN(C(=O)/C=C/c2ncc(F)cn2)C1
0.1 to 0.5	CN(c1nc(OC[C@@]23CCCN2C[C@H](F)C3)nc2c(F)c(-c3cccc4cccc(Cl)c34)ncc12)[C@@H]1CCN(C(=O)/C=C/CN2CCCS2(=O)=O)C1
> 0.5	C=CC(=O)N1C[C@@H](O)[C@@H](Nc2nc(OC[C@@]34CCCN3C[C@H](F)C4)nc3c(F)c(-c4cccc5cccc(Cl)c45)ncc23)C1

Compound	IC50 [µM]
N#CN1C2CCC1CN(c1nc(OC[C@@]34CCCN3C[C@H](F)C4)nc3c1CCN(c1cccc4cccc(Cl)c14)C3)C2	> 0.5
N#CN1C2CCC1CN(c1nc(OC[C@@]34CCCN3C[C@H](F)C4)nc3c1CCN(c1cccc4ccc(F)c(Cl)c14)C3)C2	> 0.5
C=CC(=O)N1C2CCC1CN(c1nc(OCC34CCCN3CCC4)nc3c1CCN(c1cccc4cccc(Cl)c14)C3)C2	> 0.5
